Test results as given in patent US9945845B2, “Methods of screening using amphibians” (priority 2009, dated 2018).
Entries after “also recorded” stand apart in the source; their conditions may differ. Where two headings read alike, the source gives them in different places.

How the values were obtained:
[1] = tested on: blood vessel development and/or lymphangiogenesis in Xenopus embryos; format: in vivo, Xenopus laevis; details: for ISV phenotype: intersomitic vessels; for PCV phenotype: posterior cardinal vein; for VVN phenotype: vitelline vein network; for blood vessel development phenotype (apj expression, in words): 20 μM from stage 31, fixed at stage 35/36
Experimental: All chemicals were purchased from Sigma and 10-mM stock solutions in DMSO were prepared. Chemicals were used at a final concentration of 20 μM in screening medium to treat homozygous albino Xenopus embryos, which lack natural pigmentation. Chemical treatments of embryos (n=7 per well) was initiated at stage 31 (37 hpf) and terminated at stages 35/36 (50 hpf) or 42 (80 hpf). Embryos were fixed in 4% paraformaldehyde and processed for whole mount in situ hybridization.
Where albino embryos were used, the bleaching step was omitted. Semi-automated whole mount in situ hybridizations were performed using the Biolane HTI machine (Hölle & Hüttner AG, Germany). […] Images were captured using a stereomicroscope (SteREO Lumar V12; Carl Zeiss) equipped with a digital camera (AxioCam Color; Carl Zeiss). Composite figures were organized and labeled using Adobe Photoshop CS2 and Adobe Illustrator CS software.
Edema formation or late-stage lethality may result from excretory system defects, (cardio)vascular and/or lymphatic vascular pathologies. […] Embryos were fixed for in situ hybridization either at stage 35/36 to analyze vasculogenesis and intersomitic vein angiogenesis defects or at stage 42 to evaluate possible defects in lymph vessel development (FIGS. 3-5).

LEC [2] = test: cells; format: cell-based, human; details: for activity at 1 µM: Homo sapiens
Experimental: (§1) Human umbilical vein endothelial cells (HUVEC) were purchased from PromoCell. […] HUVEC and LEC were cultured in endothelial basal medium EBM (Cambrex) supplemented with 20% fetal bovine serum (Invitrogen), antibiotic-antimycotics (100 U/ml penicillin, 100 μg/ml streptomycin, 250 ng/ml amphotericin; Invitrogen). 2 mM L-glutamine (Invitrogen), 10 μg/ml hydrocortisone (Fluka) and 25 μg/ml N^6,2′-O-dibutyryladenosine 3′,5′-cyclic monophosphate sodium salt (Fluka) for up to eleven passages.
(§2) The effect of the selected chemicals on the formation of tube-like structures was performed as follows. […] After overnight incubation at 37° C. the treated cell cultures were fixed with 4% paraformaldehyde. Each chemical treatment was performed in triplicate and the experiment was repeated at least three times. Three representative images of hotspots with tube-like structures were taken per well using a digital camera (AxioCam MRm, Carl Zeiss) mounted on an inverted microscope (Axiovert 200M, Carl Zeiss). The length of the tube-like structures was measured using the IPLab software (BD Biosciences). For each experimental condition, results are represented as average total tube length (μm) per area (three image fields).
(§3) The effects of the selected compounds on endothelial tube formation was assessed after over treatment of LEC and HUVEC cultures at a compound concentration of 1 μM in 0.1% DMSO. The length of the tube-like structures was measured using the IPLab software.

HUVEC [3] = test: HUVEC tube formation assay; format: cell-based, human; details: 1 μM in 0.1% DMSO; for activity at 1 µM: Homo sapiens, HUVEC
Experimental: as §1, §2, §3

Xenopus embryos = details: for Embr. phen.: embryonic phenotype in the primary screen; for Lethality: — = no stage of lethality given; for Type of edema Ventral: ‡ = edemas also detected in the gut; for Onset (NF): onset of edema
In short: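 Stage 31 (37 hpf) Xenopus embryos, five per well, exposed to 20 µM compound in 1% DMSO at 23 °C for 4 days. Edema, lethality and other external phenotypes were scored daily by two investigators at stages 39, 41, 45 and 47.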

HUVEC [4] = test: HUVEC cell proliferation assay; format: cell-based, human; details: 10 μM in 0.1% DMSO, 48 hours; for activity at 10 µM: Homo sapiens, HUVEC, 48 h, read-out: HUVEC proliferation
Experimental: as §1
(§4) The intensity of fluorescence, which is proportional to the number of viable cells, was measured using a microplate reader (SpectraMax Gemini EM; Molecular Devices). The chemical treatments were performed in five replicates.
(§5) The cell proliferation assays were performed by treating the endothelial cell cultures with compounds at a screening dose of 10 μM in 0.1% DMSO for 48 hours (FIG. 6a; Table 10).

LEC [5] = test: LEC cell proliferation assay; format: cell-based, human; details: 10 μM in 0.1% DMSO, 48 hours; for activity at 10 µM: Homo sapiens, 48 h, read-out: LEC proliferation
Experimental: as §1, §4, §5

[6] = 20 μM, 1% DMSO, treatment from stage 31
[7] = compounds causing edema, 20 μM, 1% DMSO, treatment from stage 31, scored to stage 47
[8] = 20 μM, 1% DMSO, treatment from stage 31, Nieuwkoop & Faber stage
[9] = 1 μM in 0.1% DMSO, overnight, read-out: LEC tube formation
[10] = 1 μM in 0.1% DMSO, read-out: LEC tube formation (tube length)
[11] = overnight, read-out: HUVEC tube formation
[12] = read-out: HUVEC tube formation (tube length)

Structure (SMILES)	LEC tube formation (LEC [2]; 1 μM in 0.1% DMSO, overnight)	HUVEC tube formation (HUVEC [3]; overnight)	Lethality (NF) (Xenopus embryos; [7])	Embr. phen. (Xenopus embryos)	Type of edema Pericordial (Xenopus embryos; embryonic stage)	Lethality (Xenopus embryos; embryonic stage)	Type of edema Ventral (Xenopus embryos; embryonic stage)	Onset (NF) (Xenopus embryos; [8])	HUVEC proliferation (HUVEC [4])	LEC proliferation (LEC [5])	activity at 10 µM (HUVEC [4]) [%]	activity at 10 µM (LEC [5]) [%]	activity at 1 µM (LEC [2]; [9]) [%]	activity at 1 µM (HUVEC [3]; [11]) [%]	Type of edema Pronephric (Xenopus embryos; embryonic stage)	further results
CN(C)c1cc2c(Nc3ccc4c(cnn4Cc4ccccc4)c3)ncnc2cn1 [GW2974, N4-(1-Benzyl-1H-indazol-5-yl)-N6,N6-dimethyl-pyrido[3,4-d)pyrimidine4-4,6-diamine]	− (−, moderate inhibition (50-85% of control):)	− (−, moderate inhibition (50-85% of control):)	47 NF	EDE	41/42	47 embryonic stages according to Nieuwkoop and Faber (NF)	41/42	41/42	–	–	–	–	–	–	–	lymph vessel development phenotype (vegfr3 expression, in words) ([1]; 20 μM from stage 31, fixed at stage 42): inhibiting preferentially lymphatic vascular development; also recorded: lymphangiogenesis was largely suppressed; Blood vessel phenotype ([1]; Xenopus embryos): normal; ALH phenotype ([1]; anterior lymph heart, Xenopus embryos): stunted; ALS phenotype ([1]; anterior lymph sac, Xenopus embryos): impaired; PLV phenotype ([1]; posterior lymph vessels, Xenopus embryos): hypoplastic; edema or other phenotype in compound-treated Xenopus embryos/tadpoles (in words) (Xenopus embryos; [6]): enlarged lymph hearts; Lymph heart enlargement (Xenopus embryos; embryonic stage): 45 embryonic stages according to Nieuwkoop and Faber (NF); Type of edema Periocular (Xenopus embryos; embryonic stage, * = causing bulging eyes, # = bilateral, causing narrow-set eyes): 41/42
COc1cc2c(cc1O)CC[C@@H]1[C@@H]2CC[C@]2(C)[C@@H](O)CC[C@@H]12 [2-methoxyestradiol, 2-Hydroxyestradiol 2-methyl ether]	− (−, moderate inhibition (50-85% of control):)	− − (− −, strong inhibition (<50% of control);)	33/34	EDE	33/34	33/34	–	33/34	O (O, inactive or marginal effects (85-115% of control);)	− (−, moderate inhibition (50-85% of control):)	–	–	–	–	–	ISV phenotype ([1]; Xenopus embryos): impaired; PCV phenotype ([1]; Xenopus embryos): hypoplastic; VVN phenotype ([1]; Xenopus embryos): hypoplastic; effect on LEC proliferation (in words) (LEC [5]): inhibited preferentially LEC proliferation; LEC tube formation (tube length) (LEC [2]; 1 μM in 0.1% DMSO): 80 % of control; HUVEC tube formation (tube length) (HUVEC [3]): 40 % of control; effect on HUVEC tube formation (in words) (HUVEC [3]): blocked tube formation preferentially in HUVEC cultures; scored in the phenotypic Xenopus screens (Xenopus embryos; 20 μM, known antiangiogenic compounds): active
Oc1c2ccccc2c2c3c(cccc13)N=N2 [SP600125, 1,9-Pyrazoloanthrone]	–	–	–	–	–	–	–	–	–	–	85 to 115	85 to 115	50 to 85	85 to 115	–	activity at 1 µM (LEC [2]; [10]): 59%; activity at 1 µM (HUVEC [3]; [12]): 110%; Lethality (NF) (Xenopus embryos; compounds causing lethality, 20 μM, 1% DMSO, treatment from stage 31, Nieuwkoop & Faber stage): 41 NF
CC1=C(/C=C/C(C)=C/C=C/C(C)=C/C(=O)O)C(C)(C)CCC1 [Retinoic acid]	–	–	40 NF	–	–	39 embryonic stages according to Nieuwkoop and Faber (NF)	–	–	+ (+, moderate promotion (>115-150% of control).)	+ (+, moderate promotion (>115-150% of control).)	115 to 150	115 to 150	50 to 85	50 to 85	39 embryonic stages according to Nieuwkoop and Faber (NF)	activity at 1 µM (LEC [2]; [10]): 50 to 85%; activity at 1 µM (HUVEC [3]; [12]): 50 to 85%; Type of edema Proctodeal (Xenopus embryos; embryonic stage): 40 embryonic stages according to Nieuwkoop and Faber (NF); Type of edema Cerebral (Xenopus embryos; embryonic stage, + = cerebral edema extending dorso-anteriorly and displacing the eyes): 39+ embryonic stages according to Nieuwkoop and Faber (NF)
Cl.c1ccc(CN2CCC3(CCCc4ccccc43)CC2)cc1 [L-687, 384 hydrochloride]	− (−, moderate inhibition (50-85% of control):)	− (−, moderate inhibition (50-85% of control):)	–	–	–	–	–	–	+ (+, moderate promotion (>115-150% of control).)	O (O, inactive or marginal effects (85-115% of control);)	–	–	–	–	–	blood vessel development phenotype (apj expression, in words) [1]: did not affect vascular development
CCOC(=O)C1=C(C)NC(C)=C(C(=O)OC)C1c1cccc(Cl)c1Cl (stereo not drawn) [Felodipine]	–	–	45 NF	–	41/42	45 embryonic stages according to Nieuwkoop and Faber (NF)	41/42	41/42	–	–	85 to 115	85 to 115	85 to 115	50 to 85	41/42	–
C#CCN1C(C)=C(C(=O)OC)C(c2cccc([N+](=O)[O-])c2)C(C(=O)OCC)=C1C (stereo not drawn) [MRS 1845, N-Propargylnitrendipene]	− (−, moderate inhibition (50-85% of control):)	O (O, inactive or marginal effects (85-115% of control);)	45 NF	–	41/42	45 embryonic stages according to Nieuwkoop and Faber (NF)	41/42	41/42	–	O (O, inactive or marginal effects (85-115% of control);)	–	–	–	–	41/42	effect on LEC tube formation (in words) (LEC [2]; 1 μM in 0.1% DMSO): preferentially blocked tube formation in LEC rather than HUVEC cultures; edema or other phenotype in compound-treated Xenopus embryos/tadpoles (in words) (Xenopus embryos; [6]): enlarged lymph hearts; Lymph heart enlargement (Xenopus embryos; embryonic stage): 41/42
O=Nc1c(-c2c(O)[nH]c3ccccc23)[nH]c2ccccc12 [Indirubin-3′-oxime]	–	–	–	–	–	–	–	–	–	–	50 to 85	85 to 115	–	50 to 85	–	activity at 1 µM (LEC [2]; read-out: LEC tube formation): 85 to 115%; Lethality (NF) (Xenopus embryos; Xenopus laevis, in vivo): 45 NF; scored in the phenotypic Xenopus screens (Xenopus embryos; in vivo): active
O=C1Nc2ccc(I)cc2C1=Cc1cc(Br)c(O)c(Br)c1 [GW5074, 3-(3,5-Dibromo-4-hydroxybenzylidine-5-iodo-1,3-dihydro-indol-2-one)]	− (−, moderate inhibition (50-85% of control):)	O (O, inactive or marginal effects (85-115% of control);)	41/42	EDE	33/34	41/42	–	33/34	O (O, inactive or marginal effects (85-115% of control);)	–	–	–	–	–	–	blood vessel development phenotype (apj expression, in words) [1]: promoting ectopic, premature angiogenesis; also recorded: the VVN was dysplastic; ISV phenotype ([1]; Xenopus embryos): ectopic; PCV phenotype ([1]; Xenopus embryos): normal; VVN phenotype ([1]; Xenopus embryos): dyspiastic; effect on LEC tube formation (in words) (LEC [2]; 1 μM in 0.1% DMSO): preferentially blocked tube formation in LEC rather than HUVEC cultures
